This is an account of results in patent US20240254093A1, “GPR35 Agonist Compounds” (Heptares Therapeutics Limited, priority 2021, published 2024).

Like-named read-outs stand apart in the source and are kept apart here.

The term EC50 denotes the midpoint of the concentration-response curve. By Ki is commonly meant a dissociation constant, usually derived from enzyme kinetics or from competition with a known ligand.

In data set [1] the target is T1, GPR35 (Homo sapiens (Human), UniProt Q9HC97). Particulars: human vs rat GPR35; cited from earlier work.
Target sequence in this assay (Q9HC97 whole entry): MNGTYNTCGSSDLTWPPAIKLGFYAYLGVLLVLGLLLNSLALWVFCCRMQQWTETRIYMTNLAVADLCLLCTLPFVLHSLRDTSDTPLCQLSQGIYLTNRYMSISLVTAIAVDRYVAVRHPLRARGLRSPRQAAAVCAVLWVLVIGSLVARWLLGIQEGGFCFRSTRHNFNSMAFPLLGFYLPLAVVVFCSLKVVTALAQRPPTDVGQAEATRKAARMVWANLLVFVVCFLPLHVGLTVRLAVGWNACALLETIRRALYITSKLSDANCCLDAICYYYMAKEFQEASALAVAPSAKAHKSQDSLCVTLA
For data set [2], the target named is T1, GPR35. Particulars: reported in US20130316985; read-out: EC50 (weak agonist activity at GPR35); cited from earlier work.
Target sequence in this assay (Q9HC97 whole entry, species assumed): as the sequence (Q9HC97 whole entry) above
The target of data set [3] is T1, GPR35. Description: Label-free DMR functional assay in HT-29 cells. The class given is cell-based. Particulars: for EC50: HT-29 cell line endogenously expressing human GPR35, DMR normalised to Lodoxamide. Here is the method: HT-29 cells (ATCC HTB-38) kept in continuous culture in McCoys (Thermo 16600082) supplemented with 10% FBS. Day prior to assay, cells harvested with TrypLE (Gibco12604-013), and plated at 20 k/well in culture media in a total volume of 50 ul in Corning EPIC 384 well plates (5040) overnight 37° C. 5% CO2. On the day of assay, cell media was removed and replaced with assay buffer (HBSS+20 mM HEPES pH7.4) and reincubated for 1 h. Compounds were prepared in 100% DMSO in ECHO LDV 384 source plates. Cell plates were read on an EPIC plate reader at room temperature for 15 mins, read paused, and cell plate added to LabCyte ECHO 550 for addition of 50 nl per well compound by acoustic transfer. Plates were immediately placed back into the EPIC reader, read unpaused and Dynamic Mass Redistribution measured for 60 minutes. Raw data was analysed by EPIC Analyser software and max peak taken per concentration to enable EC50 determination. All raw DMR data was normalised to Lodoxamide and buffer corrected.
(§1) • Ki values derived from concentration response analysis in HEKf cell membranes overexpressing GPR35a isoform. EC50 values derived from concentration response analysis in HT-29 cell line endogenously expressing human GPR35.
Target sequence in this assay (Q9HC97 whole entry): as above

In data set [4] the test system is indomethacin ileitis and barrier permeability. The experiment in a line: indomethacin ileitis and barrier permeability. The class given is in vivo. Particulars: preclinical species.
Data set [5] relates to PGE2-induced fluid secretion. The experiment in a line: PGE2-induced fluid secretion. The class given is in vivo. The settings on record: preclinical species.
Another data set relates to TNBS visceral pain. Description: TNBS mouse visceral pain model. The class given is in vivo.
Another data set concerns LPS challenge. Description: acute rat and mouse LPS challenge. The class given is in vivo.
In a further data set the target is Human GPR35a isoform (Homo sapiens (Human), UniProt Q9HC97). The experiment in a line: Human GPR35a isoform binding (radioligand, HEK293f membranes). The settings on record: HEKf cell membranes overexpressing GPR35a isoform; read-out: Human GPR35 Ki. The protocol: Overexpression of Human GPR35a Baculovirus in HEK293f cells at a cell density of 2.5×10^6 cells/mL and a multiplicity of infection of 2.5 over 24 h in Pro293 (Lonza)+5% FBS, 1% Glutamax and 0.4% Pen/Strep. Cells harvested and centrifuged at 2500 RPM for 10 mins at 4° C. The supernatant was then poured off and the pellet stored at −80° C. The pellet was defrosted and re-suspended in 15 mL of homogenising buffer (20 mM HEPES, 10 mM EDTA, pH 7.4). Then homogenised in mechanical homogeniser (VMR) for 10 seconds. The membrane was centrifuged in centrifuge tubes at 40,000 g for 15 mins at 4° C. The supernatant was poured away and re-suspended in 15 mL of homogenising buffer. Homogenised for 20 seconds. The membrane was centrifuged at 40,000 g for 45 mins at 4° C. The membrane was re-suspended in 3 mL of storage buffer (20 mM HEPES, 0.1 mM EDTA, pH 7.4) mixing well. The resulting membranes were then stored at −80°. GPR35 cell membrane homogenates were re-suspended in the binding buffer (50 mM TRIS+10 mM MgCl2 pH 7.4) to a final assay concentration of 5 ug/well. Test compounds were diluted in dimethylsulphoxide (DMSO (Sigma Aldrich, UK)), to form a 10 point ½ log concentration curve. Test compounds were added per plate, followed by 7 nM 3H-27966. 0.1 uM FAC Lodoxamide was added in order to allow non-specific binding to be calculated. Finally, membrane was added to each well on the plate. After 60 min incubation at room temperature, membranes were filtered onto a unifilter, 96-well white microplate with bonded GF/B filter, pre-soaked in ddH20, with a TomTec cell harvester, and washed 5 times with distilled water. Plates were dried prior to 50 ul/well scintillant added, sealed and radioactivity measured using a MicroBeta analyser. IC50 values were derived from the inhibition curve and affinity constant (Ki) values were calculated using the Cheng-Prussoff equation, where; pKi=−log 10 Ki.
as §1

In data set [6] the target is T1, GPR35. Description: selectivity for GPR35 / off-target effects.
Target sequence in this assay (Q9HC97 whole entry, species assumed): as the sequence (Q9HC97 whole entry) above
Data set [7] relates to major human CYPs, including CYP3A4. The experiment in a line: drug interaction potential for major human CYPs. The class given is in vitro ADME.

Human GPR35a isoform, sequence (Q9HC97 whole entry, canonical isoform): as the sequence (Q9HC97 whole entry) above

On to `O=C(O)c1cc(=O)c2ccccc2[nH]1` [kynurenic acid], for which the “potency at the human receptor lower compared to the rat ortholog” value on GPR35 [1] is listed as “at least 100 fold”.
In the case of `O=C(O)c1cc(/N=N/c2ccc(S(=O)(=O)Nc3ccccn3)cc2)ccc1O` [sulfasalazine], the EC50 on GPR35 [2] is approximately 3000 nM.
As for `O=C(NCc1ccccc1)c1ccc(-c2cc(Nc3c(O)c(=O)c3=O)cc(-c3nn[nH]n3)c2)cc1` [Example 5, N-benzyl-3′-((2-hydroxy-3,4-dioxocyclobut-1-en-1-yl)amino)-5′-(1H-tetrazol-5-yl)-[1,1′-biphenyl]-4-carboxamide], the midpoint of the response at GPR35 [3], the EC50, lay at 0.52 nM. Further, the “functional potency for GPR35 higher than Cromolyn” value at GPR35 [3] (relative to Cromolyn) is “about 500 times”. The “pharmacology in indomethacin ileitis and barrier permeability” value in [4] is listed as “showed pharmacology”. In addition, in data set [5], the “pharmacology in PGE2-induced fluid secretion” value is reported as “showed pharmacology”. Besides, the “pharmacology in TNBS mouse visceral pain model” value with TNBS visceral pain is “showed pharmacology”. The “pharmacology in acute rat and mouse LPS challenge” value with LPS challenge is “showed pharmacology”. On Human GPR35a isoform, the Ki came to 0.08 nM. Further, at GPR35 [6], the off-target effects result is on record as “no off-target effects have been observed” and the “selectivity for GPR35” value is listed as “strong selectivity”. The “drug interaction potential for the major human CYPs” value in [7] is recorded as “very low drug interaction potential”.
At GPR35 [3], `O=c1c(O)c(Nc2cc(-c3ccc(C(F)(F)F)cc3)cc(-c3nn[nH]n3)c2)c1=O` [Example 15, 3-((5-(1H-tetrazol-5-yl)-4′-(trifluoromethyl)-[1,1′-biphenyl]-3-yl)amino)-4-hydroxycyclobut-3-ene-1,2-dione] displayed an EC50 of 2.02 nM. Also, on Human GPR35a isoform, the Ki amounted to 0.16 nM.
`O=C(NCc1ccccc1)c1cccc(-c2cc(Nc3c(O)c(=O)c3=O)cc(-c3nn[nH]n3)c2)c1` [Example 6, N-benzyl-3′-((2-hydroxy-3,4-dioxocyclobut-1-en-1-yl)amino)-5′-(1H-tetrazol-5-yl)-[1,1′-biphenyl]-3-carboxamide] displayed an EC50 at GPR35 [3] of 0.62 nM. Besides, the Ki at Human GPR35a isoform turned out to be 1.82 nM.
Turning to `O=c1c(O)c(Nc2cc(-c3nn[nH]n3)cc(-c3ccccc3)n2)c1=O` [Example 18, 3-hydroxy-4-((6-phenyl-4-(1H-tetrazol-5-yl)pyridin-2-yl)amino)cyclobut-3-ene-1,2-dione], it took 5.18 nM to reach a half-maximal effect on GPR35 [3] (EC50). Besides, the Ki on Human GPR35a isoform was 2.65 nM.
For the compound `O=C(O)c1cccc(-c2cc(Nc3c(O)c(=O)c3=O)cc(-c3nn[nH]n3)c2)c1` [Example 11, 3′-((2-hydroxy-3,4-dioxocyclobut-1-en-1-yl)amino)-5′-(1H-tetrazol-5-yl)-[1,1′-biphenyl]-3-carboxylic acid], at GPR35 [3], the EC50 was 4.31 nM. Also, the Ki at Human GPR35a isoform turned out to be 6.24 nM.
Consider `O=c1c(O)c(Nc2cc(-c3ccc(OCc4ccc(C(F)(F)F)cc4)nc3)cc(-c3nn[nH]n3)c2)c1=O` [Example 20, 3-((3-(1H-tetrazol-5-yl)-5-(6-((4-(trifluoromethyl)benzyl)oxy)pyridin-3-yl)phenyl)amino)-4-hydroxycyclobut-3-ene-1,2-dione], for which the EC50 at GPR35 [3] stood at 7.68 nM. Also, on Human GPR35a isoform, the inhibition constant (Ki) worked out at 1.06 nM.
For the compound `O=c1c(O)c(Nc2cc(-c3ccc4[nH]ncc4c3)cc(-c3nn[nH]n3)c2)c1=O` [Example 25, 3-((3-(1H-indazol-5-yl)-5-(1H-tetrazol-5-yl)phenyl)amino)-4-hydroxycyclobut-3-ene-1,2-dione], it took 0.44 nM to reach a half-maximal effect on GPR35 [3] (EC50). For the same compound, the inhibitory constant (Ki) on Human GPR35a isoform amounted to 0.37 nM.
As for `COc1cccc(-c2cc(Nc3c(O)c(=O)c3=O)cc(-c3nn[nH]n3)c2)c1` [Example 9, 3-hydroxy-4-((3′-methoxy-5-(1H-tetrazol-5-yl)-[1,1′-biphenyl]-3-yl)amino)cyclobut-3-ene-1,2-dione], a half-maximal effect at GPR35 [3] (EC50) was put at 0.83 nM. Besides, on Human GPR35a isoform, the Ki came out at 0.46 nM.
Turning to `Nc1ccc(O)c(C(=O)O)c1` [5-aminosalicylic acid], at GPR35 [2], the EC50 is approximately 3000 nM.
